From patent US5292498A, “Method of treating lung disease with uridine triphosphates” (The University of North Carolina At Chapel Hill, priority 1991, dated 1994)

Columns and labels:
[1] = system: normal human nasal epithelial cells; assay: Intracellular calcium [Ca^2+ ]i in single normal human nasal epithelial cells (Fura-2); type: cell-based; conditions: concentration-effect curves, FIG. 3
Method: (§1) Freshly excised human nasal epithelium from normal or cystic fibrosis subjects was grown in primary culture in F-12, hormone-supplemented medium in accordance with known procedures. See R. Wu et al., Am. Rev. Respir. Dis. 132, 311-320 (1985). For [Ca^2+ ]i measurements, cultures were grown on non-fluorescent vitrogen substrates on glass coverslips. Cultures for electrophysiologic studies were grown to confluence on permeable collagen matrix supports (CMS), allowing addition of agonists to the basolateral or apical surface of the epithelial sheet.
(§2) Primary human nasal epithelial cells grown to confluence on vitrogen coated coverslips were loaded with a final concentration of 3 μM Fura-2/AM at 37° C. for 30 minutes. The cells were then washed in NaCl Ringer and mounted in a chamber for measurements of fluorescence. To reduce the rate of leakage of Fura-2 from the cell into the extracellular space and avoid time-dependent compartmentalization of the probe, all measurements of [Ca^2+ ]i were performed at 25° C. At this temperature,no vesicular bright spots indicative of compartmentalization of the probe were observed.
Measurements of [Ca^2+ ]i in single human nasal epithelial cells were obtained with a modular microspectrofluorimeter (SPEX Industries, Inc., Edison, N.J.) attached to a Zeiss Axiovert IM 35 microscope. The system was equipped with a xenon lamp, beam splitter, two monochromators and a rotating chopper mirror that permitted excitation of cell fluorescence at alternating wavelengths of 340 and 380 nm (emission ≥450 nm). The fluorescent signal from a single cell was measured with a photometer equipped with a pinhole (spot diameter of 3-5 μm) that excluded signals from adjacent cells.
After agonist was added, the fluorescent signal was quenched by a NaCl ringer solution containing 1.5×10^-4 M digitonin and 10^-3 M MnCl2. The remaining signal at each excitation wavelength, equivalent to the background fluorescence in non loaded cells, was subtracted from data from Fura-2/AM loaded cells before the ratio (340 nm/380 nm) was taken. The 340 nm/380 nm ratio was converted to an actual [Ca^2+ ]i measurement by using the external calibration standards and the formula derived by G. Grynkiewicz et al., J. Biol. Chem. 260, 3440-3450 (1985), used with dual wavelength measurements: [Ca^2+ ]i =K [(Rx --Ro)/(Rs --Rx)], with Ro and Rs representing the ratios at 0 Ca^2+ and saturating Ca^2+, respectively. Rx represents the experimental ratio.
To investigate whether changes in [Ca^2+ ]i might be related to regulation of ion transport, receptor characterization was performed by measuring changes in [Ca^2+ ]i in response to a number of nucleotide drugs. Concentration-effect curves for agonists active at P2x, P2y subtype or UTP sensitive receptors and other purine or pyrimidine receptor agonists were generated, measuring mean change in [Ca^2+ ]i in response to agonist concentration. Data are shown in FIG. 3, which gives log concentration-effect relationships of purinergic and pyrimidinergic compounds on [Ca^2+ ]i (mean change in [Ca^2+ ]i over basal levels).

[2] = system: normal human nasal epithelium; assay: Bioelectric studies (short circuit current, Isc) of normal human nasal epithelium in Ussing chambers; type: cell-based; conditions: for rank order of potency for Cl^- secretion: FIG. 2; for rank order of potency for increase in Isc / character of concentration-effect curve including 10^-3 M / character of log concentration-effect curve / change in ion transport rates: basolateral surface; for rank order of potency for increase in Isc / change in ion transport rates: FIG. 1; for character of concentration-effect curve including 10^-3 M: 10^-3 M drug considered; for character of log concentration-effect curve: 10^-7 to 10^-4 M; for increase in Isc: dipyridamole 10^-6 M; for change in ion transport rates: compared to ATP curve
Method: as §1
(§3) Confluent monolayers of primary human nasal epithelium were mounted in modified Ussing chambers in accordance with known procedures. See, e.g., R. Boucher et al., J. Physiol. (Lond.) 405, 77-103 (1988); M. Knowles et al., Science 221, 1067-1070 (1983). The studies described below were performed under short circuit current conditions at 37° C., and in some studies, amiloride was added to the apical bath (10^-4 M) to block transepithelial sodium transport. Changes in transepithelial potential difference (Vt), resistance (Rt) and short circuit current (Isc) were measured in response to addition of various nucleotides. Each cultured preparation was exposed to only one concentration of an agonist on either the basolateral or apical surface to avoid the tachyphylaxis observed in preliminary cumulative dose response studies. To construct concentration-effect relationships of responses to nucleotides, it was assumed that the same maximum response to an agonist could be induced from each tissue culture preparation from the same individual.
The effects of extracellular ATP on normal human nasal epithelium were investigated employing bioelectric measurements of ion transport activity when the nucleotide was applied to either the apical or basolateral membrane. […] In general, the change in Isc induced by application of ATP to the apical or the basolateral side returned to baseline or below within 5 minutes after addition of agonist. […] Apical pretreatment with amiloride (10^-4 M) removes active Na^+ absorption as a component of the Isc so that the residual Isc reflects a Cl^- secretory current (R. Boucher et al., J. Clin. Invest. 78, 1245-1252 (1986); N. Willumsen et al., Am. J. Physiol. 256, C1033-C1044 (1989)).
A concentration-effect relationship was found when ATP was applied to normal human nasal epithelium under basal conditions (data not shown). Comparisons were made between responses of tissues from different donors based on the peak change in Isc following ATP application. The curve describes the mean peak change in Isc in response to log increasing concentrations of ATP applied to the apical or basolateral surface.
Concentration-effect relationships were also found for ATP applied to the apical or basolateral membrane of amiloride-pretreated tissues (data not shown). Again, the nucleotide's effect on ion transport was examined as the mean peak change in Isc after ATP application.
(§4) The purinergic receptor subtype(s) linked to regulation of ion transport of human nasal epithelium were characterized by obtaining concentration-effect relationships for a variety of purine and pyrimidine agonists in preparations derived from normal and CF patients. We characterized receptor subtype(s) on the […] surface by measuring nucleotide effect on basal Na^+ transport rates. Because therapies designed to induce Cl^- secretion might best be delivered by the aerosol route, receptor subtype characterization on the apical barrier was performed in the presence of amiloride. The effect of extracellular nucleotides on ion transport is reported as the percent change in Isc from control values when applied to the basolateral or apical surface of the culture. Basal pre-agonist currents were similar for tissues in each concentration group.

[3] = 25° C.; read-out: Kd (effective dissociation constant for Fura-2); cited from earlier work
[4] = system: CF nasal epithelial cells; assay: Intracellular calcium [Ca^2+ ]i in single CF nasal epithelial cells (Fura-2); type: cell-based, human; conditions: FIG. 6
Method: as §1, with “132, 311-320 (1985).” left out
as §2, with “C.” for “C. At this temperature,no vesicular bright spots indicative of compartmentalization of the probe were observed.”
Measurements of [Ca^2+ ]i in single human nasal epithelial cells were obtained with a modular microspectrofluorimeter (SPEX Industries, Inc., Edison, N.J.) attached to a Zeiss Axiovert IM 35 microscope. […] The fluorescent signal from a single cell was measured with a photometer equipped with a pinhole (spot diameter of 3-5 μm) that excluded signals from adjacent cells. […]

[5] = system: CF human nasal epithelium; assay: Bioelectric studies (Isc) of cystic fibrosis (CF) human nasal epithelium; type: cell-based; conditions: for Isc response tracing: apical, amiloride-pretreated, FIG. 4C
Method: as §1, §3, §4
Availability of Cystic Fibrosis (CF) tissues is limited, and our investigation of effects of nucleotides was restricted to examining regulation of Cl^- secretion rates and [Ca^2+ ]i levels by ATP and UTP.

[6] = apical surface, amiloride-pretreated

| SMILES | effectiveness for raising [Ca^2+ ]i [1] | rank order of potency for Cl^- secretion [2, 6] | rank order of potency for increase in Isc [2] | character of concentration-effect curve including 10^-3 M [2] | character of log concentration-effect curve [2] | also measured |
| --- | --- | --- | --- | --- | --- | --- |
| CSc1nc(N)c2ncn([C@@H]3O[C@H](COP(=O)(O)OP(=O)(O)OP(=O)(O)O)[C@@H](O)[C@H]3O)c2n1 [2MeSATP, 2-methylthio ATP] | little effect | ATP≥UTP>ATPγS>ADP>2MeSATP>ADPβS | 2MeSATP>UTP≥ATP>ATPγS>ADP>ADPβS | – | – | – |
| O=c1[nH]c(=O)n([C@@H]2O[C@H](COP(=O)(O)OP(=O)(O)OP(=O)(O)O)[C@@H](O)[C@H]2O)cc1Br [5BrUTP, 5-bromo-uridine 5'-triphosphate] | essentially as effective as UTP | – | – | – | – | – |
| Nc1ncnc2c1ncn2[C@@H]1O[C@H](COP(=O)(O)OP(=O)(O)O)[C@@H](O)[C@H]1O [ADP] | – | ATP≥UTP>ATPγS>ADP>2MeSATP>ADPβS | 2MeSATP>UTP≥ATP>ATPγS>ADP>ADPβS | – | – | – |
| Nc1ncnc2c1ncn2[C@@H]1O[C@H](COP(=O)(O)OP(O)(O)=S)[C@@H](O)[C@H]1O [ADPβS] | little effect | ATP≥UTP>ATPγS>ADP>2MeSATP>ADPβS | 2MeSATP>UTP≥ATP>ATPγS>ADP>ADPβS | biphasic in character | sigmoidal character | – |
| Nc1ncnc2c1ncn2[C@@H]1O[C@H](COP(=O)(O)OP(=O)(O)OP(O)(O)=S)[C@@H](O)[C@H]1O [ATPγS] | most effective agonists | ATP≥UTP>ATPγS>ADP>2MeSATP>ADPβS | 2MeSATP>UTP≥ATP>ATPγS>ADP>ADPβS | biphasic in character | sigmoidal character | – |
| Cc1ccc(N(CC(=O)O)CC(=O)O)c(OCCOc2cc3cc(-c4ncc(C(=O)O)o4)oc3cc2N(CC(=O)O)CC(=O)O)c1 [Fura-2] | – | – | – | – | – | Kd [3]: 0.157 µM |
| O=c1ccn([C@@H]2O[C@H](COP(=O)(O)OP(=O)(O)OP(=O)(O)O)[C@@H](O)[C@H]2O)c(=O)[nH]1 [UTP, uridine 5'-triphosphate] | most effective agonists | ATP≥UTP>ATPγS>ADP>2MeSATP>ADPβS | 2MeSATP>UTP≥ATP>ATPγS>ADP>ADPβS | biphasic in character | sigmoidal character | [Ca^2+ ]i response in CF tissues [4]: Increases in [Ca^2+ ]i; Isc response tracing ([5]; UTP 10^-4 M as printed): Cl^- secretory response; Isc response tracing ([5]; UTP 10^-6 M as printed): Cl^- secretory response; change in Isc over basal levels ([5]; apical surface, amiloride-pretreated CF tissues): routinely stimulated increases in Cl^- secretion |
| Nc1ncnc2c1ncn2[C@@H]1O[C@H](CO)[C@@H](O)[C@H]1O [adenosine] | – | – | – | – | – | increase in Isc ([2]; 10^-4 M, apical surface, amiloride-pretreated, n=8): 10±6%; increase in Isc ([2]; 10^-5 M or 10^-4 M, basolateral barrier, n=8 each dose): less than 5%; increase in Isc ([2]; 10^-5 M, apical surface, amiloride-pretreated, n=7): 10±7%; change in Isc compared to ATP ([2]; following preincubation with dipyridamole 10^-6 M): only small and variable changes in Isc compared to ATP |
| Nc1ncnc2c1ncn2[C@@H]1O[C@H](COP(=O)(O)CP(=O)(O)OP(=O)(O)O)[C@@H](O)[C@H]1O [αβMeATP, α,β-methylene ATP] | little effect | – | – | – | – | change in ion transport rates [2]: little change in ion transport rates |
| Nc1ncnc2c1ncn2[C@@H]1O[C@H](COP(=O)(O)OP(=O)(O)CP(=O)(O)O)[C@@H](O)[C@H]1O [βγMeATP, β,γ-methylene ATP] | little effect | – | – | – | – | change in ion transport rates [2]: little change in ion transport rates |
